Drawing on EP0471841A1, “SULFONAMIDE DERIVATIVE AND PHARMACEUTICAL COMPOSITION CONTAINING THE SAME” (Asahi Kasei Kogyo Kabushiki Kaisha, priority 1990, dated 1991), this text covers inhibition in vivo and EC50 for 23 molecules.

The subject of one experiment is trachea. Briefly: Effect on trachea in vivo: inhibition of histamine-induced tracheal contraction (modified Konzett-Rössler method). The conditions noted are these: Cavia porcellus, iv, 0.05 h; compound 1 mg/kg through the femoral vein, histamine 20 µg/kg through the femoral vein 3 minutes later; anesthetized male guinea pigs; compounds used as hydrochloride; 3 animals per group; read-out: Inhibition of tracheal con-traction. From the text:
Further, the inhibiting action of the compound of the present invention on the histamine-induced contraction of the trachea of a guinea pig was examined by in vivo experiment. As a result, the in vivo bronchodilation action was confirmed.
According to a modified method of Konzett-Rössler method [see J. Martinez et al, Bronchial Arterial Injections, vol. 33, 295, (1961); Masaaki Takai et al, Oyo Yakuri (Applied Pharmacology), vol. 17, p.345, (1979)], effect of the compounds of the present invention on trachea in vivo was examined. Of compounds 3, 4, 30, 31, 36, 38, 48, 54 and 55, which were used herein, compounds other than acid addition salts were individually subjected to testing in the form of a hydrochloride which was obtained in the same manner as described in Example 61. Urethane was intraperitoneally administered to male guinea pigs weighing 350 to 600 g (Hartley strain, Kuroda Junkei Dobutsu) in an amount of 1.5 g/kg of body weight to anesthetize the animals. Then, cannulae were inserted into the trachea and femoral vein of each animal under urethane anesthesia and fixed. The inserted tracheal cannula was connected to a respirator for small animal (model 1683, manufactured by Harvard Co., Ltd.) and a pneumotachometer (model MHF-1200, manufactured by Nihon Kohden Corp.) through a bottle containing water, the water surface of which was adjusted to a level which is 10 cm high from the bottom, and a respiratory volume was determined.
Each of the above-mentioned compounds of the present invention was administered to guinea pigs through the femoral vein in an amount of 1 mg/kg of body weight. After 3 minutes from the administration, histamine was administered to the same guinea pigs through the femoral vein in an amount of 20 µg/kg of body weight, to thereby induce contraction of trachea and the inhibition of the histamine-induced tracheal contraction by each of the above-described compounds of the present invention was determined. For comparison, the inhibition of histamine-induced tracheal contraction by each of aminophylline, comparative compound (1) and comparative compound (2) was determined in substantially the same manner as described above. As a solvent for each compound, physiological saline was used. The number of the guinea pigs tested in each group was 3.

Experiment [1] relates to tracheal specimens excised from guinea pigs. In words: Inhibitory effect on PGF2α-induced contraction of tracheal specimens excised from guinea pigs (Magnus tube). The conditions noted are these: Cavia porcellus, dose required for relaxing PGF2α-induced contraction to 50 %; PGF2α final concentration: 1 µm; compounds used as hydrochloride; 3 specimens per group; read-out: PGF2α-induced contraction ED50. It is filed as cell-based. As for the experimental part: (§1) The bronchial smooth muscle-relaxing action of the sulfonamide derivative of the present invention was evaluated by the effect on suppression of KCl-induced contraction and PGF2α-induced contraction of bronchial specimens excised from guinea pigs.
Tracheal specimens excised from male guinea pigs weighing 350 to 500 g (Hartley strain, Kuroda Junkei Dobutsu) were contracted in substantially the same manner as in Application Example 1 except that PGF2α (final concentration: 1 µm) was used instead of KCl. After the contraction of the tracheal specimens became stable, each of the compounds (hydrochloride) of the present invention was dissolved in distilled water or physiological saline, and the compound solution was cumulatively added into the Magnus tube in the same manner as in Application Example 1. The relaxing effect of each of the compounds of the present invention on the contracted specimens was evaluated and a dose-response curve was obtained. The dose required for relaxing PGF2α-induced contraction to 50 %, i.e., ED₅₀ was calculated form the dose-response curve. Of compounds 3, 4, 30, 31, 36, 38, 48, 54 and 55, which were imdividually used herein, compounds other than acid addition salts were used in the form of a hydrochloride which was obtained in the same manner as described in Example 61. For comparison, the same procedure as described above was repeated except that aminophylline, comparative compound (1) and comparative compound (2) were individually used instead of the compound of the present invention, to obtain an ED₅₀. The number of specimens in each group was 3.

For experiment [2] the test system is unchanged. Briefly: Inhibitory effect on KCl-induced contraction of tracheal specimens excised from guinea pigs (Magnus tube). Format: cell-based. The conditions noted are these: Cavia porcellus; dose required for relaxing KCl-induced contraction to 50 %; final KCl concentration: 20 mM; 37 °C; compounds other than acid addition salts used as hydrochloride; 3 specimens per group; read-out: ED₅₀ Effect on KCl-induced contraction. How it is done: as §1
According to a method in which tracheal specimens excised from guinea pigs were used (Takagi and Ozawa, "Yakubutsugaku Jikken (Experiments in Pharmacology)", pp.100-102, 1960, published by Nanzando Japan; and Fujiwara and Shibata, "Yakurigaku Kiso Jikenho (Methods of Fundamental Experiments in Pharmacology)" pp.131-134, 1982, published by Kyourin, Japan), relaxing effect of sulfonamide derivatives of the present invention on bronchial smooth muscle was examined. Of compounds (1) to (69) shown herein, compounds other than acid addition salts were individually used in the form of a hydrochloride which was obtained by the same method as described in Example 61.
From male guinea pigs weighing 350 to 500 g (Hartley strain, Kuroda Junkei Dobutsu), tracheas were excised and each of the excised tracheal specimens was hung in 20 ml of a Magnus tube filled with Krebs-Henseleit solution under isotonic conditions and the solution temperature was kept at 37 °C. An aqueous KCl solution was dropwise added into the Magnus tube (final KCl concentration: 20 mM) to contract the tracheal specimen. After the KCl-induced contraction became stable, each of the compounds of the present invention was dissolved in distilled water or physiological saline, and the compound solution was cumulatively added into the Magnus tube. The relaxing effect of each of the compounds of the present invention on contracted tracheal specimens was evaluated and a dose-response curve was obtained.
A dose required for relaxing KCl-induced contraction to 50 %, i.e., ED₅₀ was calculated from the dose-response curve. For comparison, the same method as described above was repeated except that aminophylline was used, to thereby determine an ED₅₀. The number of tracheal specimens in each group was 3.

Where a name gives a salt, the structure may show the parent alone.

On to `O=S(=O)(NCCNCc1ccc2c(c1)OCO2)c1cccc2cnccc12` [(3), N-[2(3,4-methylenedioxybenzylamino)ethyl]-5-isoquinolinesulfonamide], for which the inhibition in vivo at 1 mg/kg in the experiment on trachea stood at 36%. Besides, the EC50 in experiment [1] came out at 23 µM; in experiment [2], 5.2 µM.
For `O=S(=O)(NCCNCc1ccc2c(c1)OCO2)c1cccc2c(O)nccc12` [(4), N-[2-(3,4-methylenedioxybenzylamino)ethyl]-1-hydroxy-5-isoquinolinesulfonamide hydrochloride] the same measures were 25%, 5 µM and 10 µM.
With `O=S(=O)(NCCN1CCN(Cc2ccc3c(c2)OCO3)CC1)c1cccc2cnccc12` [(30), 1-(5-isoquinolinesulfonylaminoethyl)-4-(3,4-methylenedioxybenzyl)piperazine], the figures for the EC50 in experiment [1] and in experiment [2] were 43 µM and 16 µM, respectively.
With `O=S(=O)(NCCN1CCCN(Cc2ccc3c(c2)OCO3)CC1)c1cccc2cnccc12` [(31), 1-(5-isoquinolinesulfonylaminoethyl)-4-(3,4-methylenedioxybenzyl)homopiperazine], the EC50 in experiment [1] came out at 31 µM; in experiment [2], 13 µM.
Taken in the same sequence, the figures for `O=S(=O)(NCCN1CCCNCC1)c1ccc(Cl)c2ncccc12` [(36), 1-(8-chloro-5-quinolinesulfonylaminoethyl)homopiperazine] were 91 µM and 43 µM.
Turning to `O=S(=O)(NCCN1CCCN(Cc2ccc3c(c2)OCO3)CC1)c1ccc(Cl)c2ncccc12` [(38), 1-(8-chloro-5-quinolinesulfonylaminoethyl)-4-(3,4-methylenedioxybenzyl)homopiperazine], the EC50 came out at 74 µM in experiment [1] and 26 µM in experiment [2].
Consider `CCOc1ccc(S(=O)(=O)NCCN2CCCN(Cc3ccc4c(c3)OCO4)CC2)c2cccnc12` [(48), 1-(8-ethoxy-5-quinolinesulfonylaminoethyl)-4-(3,4-methylenedioxybenzyl)homopiperazine], for which the inhibition in vivo at 1 mg/kg in the experiment with trachea stood at 33%. In addition, the EC50 in experiment [1] amounted to 82 µM; in experiment [2], 37 µM.
With `CCOc1ccc(S(=O)(=O)NCCN2CCCN(Cc3ccc(Cl)cc3)CC2)c2cccnc12` [(50), 1-(8-ethoxy-5-quinolinesulfonylaminoethyl)-4-(4-chlorobenzyl)homopiperazine], in experiment [2], the EC50 amounted to 81 µM.
The same measure, in the same setting: as for `CCOc1ccc(S(=O)(=O)NCCN2CCN(Cc3ccc(Cl)cc3)CC2)c2cccnc12` [(51), 1-(8-ethoxy-5-quinolinesulfonylaminoethyl)-4-(4-chlorobenzyl)piperazine], the figure is 85 µM; as for `CCOc1ccc(S(=O)(=O)NCCN2CCCN(CCc3ccc(OC)c(OC)c3)CC2)c2cccnc12` [(52), 1-(8-ethoxy-5-quinolinesulfonylaminoethyl)-4-(3,4-dioxyphenethyl)homopiperazine], 102 µM; as for `CCOc1ccc(S(=O)(=O)NCCN2CCN(CCc3ccc(OC)c(OC)c3)CC2)c2cccnc12` [(53), 1-(8-ethoxy-5-quinolinesulfonylaminoethyl)-4-(3,4-dimethoxyphenethyl)piperazine], 120 µM.
For the molecule `O=S(=O)(c1ccc(Cl)c2ncccc12)N1CCCNCC1` [(54), 1-(8-chloro-5-quinolinesulfonyl)homopiperazine], the inhibition in vivo at 1 mg/kg in the experiment with trachea turned out to be 30%. Also, the figures for the EC50 in experiment [1] and in experiment [2] were 65 µM and 38 µM, respectively.
Taken in the same sequence, the figures for `CCOc1ccc(S(=O)(=O)N2CCCNCC2)c2cccnc12` [(55), 1-(8-ethoxy-5-quinolinesulfonyl)homopiperazine] were 23%, 71 µM and 45 µM.
Take `O=S(=O)(c1ccc(Cl)c2ncccc12)N1CCNCC1` [(56), 1-(8-chloro-5-quinolinesulfonyl)piperazine]: the EC50 in experiment [2] worked out at 49 µM.
Still for that read-out and setting: as for `CCOc1ccc(S(=O)(=O)N2CCNCC2)c2cccnc12` [(57), 1-(8-ethoxy-5-quinolinesulfonyl)piperazine], the figure is 57 µM; as for `O=S(=O)(c1cccc2ncccc12)N1CCCNCC1` [(58), 1-(5-quinolinesulfonyl)homopiperazine], 79 µM.
The same measure, in the same setting: as for `O=S(=O)(c1cccc2ncccc12)N1CCNCC1` [(59), 1-(5-quinolinesulfonyl)piperazine], the figure is 90 µM.
Regarding `COc1ccc(CCNC(C)CNS(=O)(=O)c2ccc(Cl)c3ncccc23)cc1OC` (stereo not shown) [(60), N-[2-(3,4-dimethoxyphenethylamino)-2-methylethyl]-8-chloro-5-quinolinesulfonamide], in experiment [2], the EC50 was 110 µM.
Take `Cn1c(=O)c2[nH]cnc2n(C)c1=O` [Aminophylline, aminophylline, reference compound]: in the experiment on trachea, the inhibition in vivo at 1 mg/kg was determined as 7%. Moreover, the EC50 in experiment [1] is greater than 200 µM.
Taken in the same sequence, the figures for `CCCCCCN(CCN)S(=O)(=O)c1cccc2cnccc12` [Comparative compound (1), N-(2-aminoethyl)-N-hexyl-5-isoquinolinesulfonamide hydrochloride, reference compound] were 9% and 101 µM.
For `NC1CCCN(S(=O)(=O)c2cccc3cnccc23)C1` (stereo not shown) [Comparative compound (2), 1-(5-isoquinolinesulfonyl)-3-aminopiperidine hydrochloride, reference compound] the same measures were 12% and 93 µM.
`O=S(=O)(NCCNCc1ccc2c(c1)OCO2)c1cccc2ncccc12` [Compound (27), N-[2-(3,4-methylenedioxybenzylamino)ethyl]-5-quinolinesulfonamide]: the EC50 in experiment [2] was found to be 86 µM.
The same measure, in the same setting: the figure for `CCOc1ccc(S(=O)(=O)NCCN2CCCNCC2)c2cccnc12` [Compound (46), 1-(8-ethoxy-5-quinolinesulfonylaminoethyl) homopiperazine] is 51 µM.
